Tests used:
Format in all cases: cell-based, human
[1] = tested on: MUM-2B melanoma cells; experiment: LC-MS MAGE lipid levels in inhibitor-treated melanoma cells; conditions: compared to DMSO controls
Experimental: (§1) The following LC-MS conditions were used for analysis of cancer cell metabolomes. Cell pellets were harvested by scraping, isolated by centrifugation at 1,400×g, and dounce-homogenized in 4 mL of a 2:1:1 mixture of chloroform:methanol:Tris buffer (50 mM Tris*HCl, pH 8.0). Samples that were analyzed by targeted LC-MS were homogenized in the presence of the following synthetic standards: C15:0 MAG (50 pmol), C17:0 LPA (50 pmol), and 13C-C16:0 MAGE (25 pmol). Organic and aqueous layers were separated by centrifugation at 1,260×g for 5 min. The organic layer was then removed, dried under a stream of N2, and re-solubilized in 100 μL of chloroform, of which 30 μL was analyzed by LC-MS. Extraction of LPA was performed by acidifying the remaining aqueous layer to a final concentration of 5% formic acid, followed by the addition of 2 mL of chloroform. The mixture was vortexed, the organic layer removed, concentrated to dryness, and dissolved in 100 μL of chloroform, of which 30 μL was analyzed by LC-MS.
(§2) LC-MS analysis was performed using an Agilent 1100 LC-MSD SL instrument. […] Mobile phase A was composed of a 95:5 ratio of water:methanol and mobile phase B consisted of 2-propanol, methanol, and water in a 60:35:5 ratio. Solvent modifiers such as 0.1% formic acid and 0.1% ammonium hydroxide were used to assist ion formation as well as improve the LC resolution in both positive and negative ionization modes respectively. The flow rate for each run started at 0.1 mL/min for 5 min, to alleviate backpressure associated with injecting chloroform. The gradient started at 0% B and increased linearly to 100% B over the course of 40 min with a flow rate of 0.4 mL/min, followed by an isocratic gradient of 100% B for 7 min before equilibrating for 8 min at 0% B with a flow rate of 0.5 mL/min.
(§3) MS analysis was performed with an electrospray ionization (ESI) source. […] Differentially expressed metabolites between sample pairs were identified using the XCMS analyte profiling software (http://metlin/download) that aligns mass peaks from two LC-MS traces and quantifies the relative intensities of global metabolites (5). Significant inhibitor-sensitive peak changes were confirmed by manual quantification using the area under the peak normalized to total ion current. […] Peaks were quantified by measuring the area under the peak and normalized to an internal standard (C15:0 MAG) or endogenous lipid (palmitic acid). […]
(§4) Human ovarian cancer cell lines were obtained form the National Cancer Institute's Developmental Therapeutics Program. […] At approximately 80% confluency, cells were trypsinized, counted with the aid of a hemocytometer, and 2.5×10^6 cells were plated in 6 cm dishes. […] After incubation for 4 h the cells were harvested and analyzed by ABPP or LC-MS. […]

[2] = tested on: C8161 melanoma cells; experiment: as above; conditions: compared to DMSO controls
Experimental: as §1, §2, §3, §4

[3] = tested on: SKOV-3 cells; experiment: Targeted LC-MS analysis of lipid levels in inhibitor-treated cells; conditions: compared to DMSO controls
Experimental: as §1, §2
MS analysis was performed with an electrospray ionization (ESI) source. The capillary voltage was set to 3.0 kV and the fragmentor voltage to 100V. The drying gas temperature was 350° C., the drying gas flow rate was 10 L/min, and the nebulizer pressure was 35 psi. Untargeted data was collected using a mass range of 200-1000 Da and exported as common data format (.CDF) files for computational analysis. Differentially expressed metabolites between sample pairs were identified using the XCMS analyte profiling software (http://metlin/download) that aligns mass peaks from two LC-MS traces and quantifies the relative intensities of global metabolites (5). Significant inhibitor-sensitive peak changes were confirmed by manual quantification using the area under the peak normalized to total ion current. Targeted LC-MS measurements were made using selected ion monitoring (SIM). Peaks were quantified by measuring the area under the peak and normalized to an internal standard (C15:0 MAG) or endogenous lipid (palmitic acid). Absolute MAGE levels were estimated by comparison to a 13C-MAGE standard.
Human ovarian cancer cell lines were obtained form the National Cancer Institute's Developmental Therapeutics Program. The melanoma lines C8161 and MUM-2B were obtained form Mary Hendrix. Cells were maintained in RPMI medium 1640 with 10% (v/v) fetal calf serum at 37° C. in a humidified atmosphere of 5% CO2/95% air. At approximately 80% confluency, cells were trypsinized, counted with the aid of a hemocytometer, and 2.5×10^6 cells were plated in 6 cm dishes. 20 h after plating cells were washed twice with PBS and supplemented with serum free RPMI containing 0.5% BSA (Sigma)(BSA-RPMI) with AS115 (0.01-10 μM) or vehicle (DMSO) at 0.1%. After incubation for 4 h the cells were harvested and analyzed by ABPP or LC-MS.
By extension, the m/z 345 and 347 metabolites were interpreted to represent the C18:1 and C18:0 MAGEs, respectively. […] MAGE levels were measured by targeted LC-MS analysis of SKOV-3 cells treated with AS115 (5 μM) or DMSO for 4 h using a 13C-C16:0 MAGE internal standard. Values are represented as pmol/10^6 cells. […]

[4] = tested on: shKIAA1363 cells; experiment: Cell migration assay (Transwell) with shKIAA1363 cells; conditions: concentrations up to 1 μM, 18 h
Experimental: Migration assays were performed in Transwell chambers with […] pore-sized membranes coated with 10 μg/ml collagen overnight at 4° C. (Corning). Twenty-four hours before the start of the migration assay, cancer cell lines were plated at concentration of 2.25×10^6 cells per 10 cm dish. At the start of the migration assay, cells were harvested by washing two times with PBS and then serum starved in medium containing 0.05% BSA for 4 hours. Serum starved cells were trypsinized, spun at 1400 rpm for 3 minutes, resuspended, and counted. Cells were diluted to a density of 100,000 cells/ml in medium contain 0.05% BSA, and then 250 μl were placed in the upper chamber of the transwells. Either DMSO, alkyl LPA (10 nM), alkyl LPC (10-1000 nM), or MAGE (10-1000 nM) in medium containing 0.05% BSA was added in the lower chamber, and cells were allowed to migrate for 18 h. The filters were then fixed and stained with Diff-Quik (Dade Behring). Cells that had not migrated through the chamber were removed with a cotton ball. The cells which migrated were counted at a magnification of 40× and from each migration chamber 6 fields were independently counted.
The decrease in tumorigenic potential of shKIAA1363 cells was not associated with a change in proliferation potential in vitro (FIG. 11). shKIAA1363 cells were, however, impaired in their in vitro migration capacity compared to control cells (FIG. 9B). […]

Row | Molecule | Levels of MAGE lipids [1] | Levels of MAGE lipids [2] | Levels of MAGE lipids [3] | Effect on cancer cell migration [4]
1 | NC(=O)c1cccc(-c2cccc(OC(=O)NC3CCCCC3)c2)c1 [URB597, reference compound] | did not affect | did not affect | did not affect | –
2 | monoalkylglycerol ether [MAGE] | – | – | – | Neither MAGE nor alkyl-LPC impacted cancer cell migration

From patent US8940497B2, “Enzyme regulating ether lipid signaling pathways” (The Scripps Research Institute, priority 2006, dated 2015)
